Values of other authors as cited in patent US7022306B1, “Process for the production of hydrogen” (UOP LLC, priority 2003, dated 2006).
Where two headings read alike, the source gives them in different places.

What was measured:
Rat [1] = test system: Rat
Rat [2] = test system: Rat; remark: listed apart in the source

Compound | Toxicity LD50 (mg/kg) Oral-Rat (Rat [2]) [mg/kg] | further results
CCCC [Butane] | – | Toxicity LC50 (mg/liter) Inhalation-Rat (Rat [1]; for 4 hours): 658 for 4 hours mg/liter
CC(C)O [Isopropanol] | 5045 | –
CC(C)OC(C)C [Isopropylether] | 8470 | –
C [Methane] | – | Toxicity LC50 (mg/liter) Inhalation-Rat (Rat [1]): >5 mg/L
CCCCC [Pentane] | >2000 | –
OC[C@@H](O)[C@@H](O)[C@H](O)[C@@H](O)CO [Sorbitol] | 15900 | –
